Literature values in US20130140210A1, “LOW-DOSED SOLID ORAL DOSAGE FORMS FOR HRT” (BAYER INTELLECTUAL PROPERTY GMBH, priority 2010, published 2013).

System: moderate or severe hot flushes in menopausal women
Conditions: 2 mg E2

C[C@]12CC[C@@H]3c4ccc(O)cc4CC[C@H]3[C@@H]1CC[C@@H]2O [E2, estradiol]
estrogen-related adverse events: increased estrogen-related adverse events
